Here are results for 23 compounds from patent US9931324B2, “Indolizine derivatives and their use in neurodegenerative diseases” (Merck Patent GmbH, priority 2014, dated 2018).

The target in assay [1] is T1, P2X7 (Homo sapiens, UniProt Q99572).
T1 sequence (Q99572 1-595): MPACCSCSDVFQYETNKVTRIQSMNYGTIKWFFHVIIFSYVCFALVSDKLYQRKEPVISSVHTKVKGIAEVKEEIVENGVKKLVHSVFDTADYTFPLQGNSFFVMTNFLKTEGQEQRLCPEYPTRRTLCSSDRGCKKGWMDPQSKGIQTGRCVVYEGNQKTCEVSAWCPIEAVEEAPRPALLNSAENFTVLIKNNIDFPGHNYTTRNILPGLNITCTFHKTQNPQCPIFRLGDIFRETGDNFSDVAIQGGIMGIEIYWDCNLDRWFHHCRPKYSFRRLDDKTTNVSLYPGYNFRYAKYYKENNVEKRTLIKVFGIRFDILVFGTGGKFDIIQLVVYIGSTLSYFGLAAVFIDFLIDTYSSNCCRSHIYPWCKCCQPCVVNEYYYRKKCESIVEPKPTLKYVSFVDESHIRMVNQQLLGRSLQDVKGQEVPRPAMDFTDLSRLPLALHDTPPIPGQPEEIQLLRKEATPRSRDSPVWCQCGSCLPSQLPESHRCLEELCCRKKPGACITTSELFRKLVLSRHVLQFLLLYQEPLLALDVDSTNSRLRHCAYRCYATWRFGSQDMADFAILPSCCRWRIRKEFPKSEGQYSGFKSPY
Briefly: Pore permeation assay (YO PRO dye uptake, BzATP-induced). Type of assay: cell-based. On the set-up: expressed in transfected cells; host or cells: HEK293. The settings on record: HEK293 transfected with human P2X7 receptor, BzATP 10 uM, read-out: hP2X7 IC50. How it is done:
Agonist-induced pore formation was determined by measuring cellular uptake of YO PRO fluorescence dye in HEK293 transfected with human P2X7 receptor. A HEK293 cell over expressing human P2X7 was harvested using HQTase reagent to detach the cells from T75 cm flask. The harvested cells are centrifuged @1200 rpm for 5 min at room temperature. The viability of cells was determined by Trypan blue dye and the cells are plated @10,000 cell/well in 50 ul volume in a 384W BD Poly lysine coated plate and incubated overnight at 37 C. After overnight incubation, the culture medium was replaced with 35 ul/well assay buffer (5 mM KCl, 0.1 mM CaCl2, 5 mM Glucose, 10 mM HEPES buffer pH7.4 containing 125 mM NaCl. The serial dilution of compounds was performed using Bravo liquid handling instrument and the compounds were added using Bravo to the cell assay plate starting at 2.5 uM with three dilutions for 10 points. The positive control inhibitor compound was added to column 23. The plate was shaken slowly on a plate shaker for 10 seconds. The cells were incubated with the compound for 20 minutes at room temperature. After the incubation period, YO PRO dye (1 uM) along with BzATP (10 uM) were added to cells at 10 ul/well. The plate was centrifuged at 1000 rpm for 5 seconds and incubated at room temperature for 30 minutes. The uptake of YO PRO dye into the cells was measured using Envision Fluorescence plate reader instrument (Perkin Elmer).

For assay [2], the target named is T1, P2X7. Briefly: IL-1β release assay in THP-1 cells (sandwich ELISA, BzATP-stimulated). On the set-up: endogenous in cells; host or cells: THP-1 cells (PMA-differentiated, LPS-primed). Type of assay: cell-based. The note with it: LPS primed, 0.8 mM BzATP, mature IL-1β release, read-out: hTHP-1/IL-ib IC50. How it is done:
IL-1β release assay: The activation of P2X7 by ATP leads to a fast transient activation of cells resulting in influx of Ca^2+ followed by conversion of pro-IL-1β to active IL-1β. The functional activity of P2X7 compounds was measured by the release of mature IL-1β in the culture medium of THP-1 cells, detected by sandwich ELISA. Cells were maintained in complete growth medium (RPMI 1640+10% HI-FCS+2 mM L-glutamine+1× PS). […] THP-1 cells were harvested from the flask in 50 ml by centrifugation for 3 min at 100 g. The cells were resuspended to 2×10^5 cells/ml in medium supplemented with 0.5 μM PMA and incubated. The cells were washed and resuspended to 1.5×10^5 cells/ml in medium complemented with 10 ng/ml LPS, and the cells were primed for 4 h at 37° C., 5% CO2. After addition of 20 μL of prediluted test compounds, blank, standard and control reagents, cells were incubated for a further 20 min at 37° C. and stimulated with 0.8 mM BzATP for 30 minutes. The cells were centrifuged, supernatant was collected and the presence of mature IL-1β was detected using Dual human IL-1b kit following manufacturer's instruction. The tetrahydrobenzodiazepine analogs effectively modulated the activity of P2X7 in the cells as measured by the levels of pro-inflammatory cytokine IL-1β, which is released by the activation of P2X7 receptor.

Where only a bound is given, the exact number is not on record here.

Take `CCOCCc1cc(C(=O)NCC2(O)CCCC(F)(F)C2)c2c(Cl)cccn12` (stereo not shown) [Compound 70, 8-Chloro-3-(2-ethoxy-ethyl)-indolizine-1-carboxylic Acid (3,3-difluoro-1-hydroxy-cyclohexylmethyl)-amide]: the IC50 in assay [1] and in assay [2] was 10 to 100 nM each time.
Take `COCCc1cc(C(=O)NCC2(O)CCCC(F)(F)C2)c2c(C)cccn12` (stereo not shown) [Compound 57, 3-(2-Methoxy-ethyl)-8-methyl-indolizine-1-carboxylic Acid (3,3-difluoro-1-hydroxy-cyclohexylmethyl)-amide]: the IC50 in assay [1] and in assay [2] was 101 to 500 nM each time.
Turning to `O=C(NCC1CCC(F)(F)CC1)c1cc(C2=CCOC2)n2cccc(Cl)c12` [Compound 21, 8-chloro-N-((4,4-difluorocyclohexyl)methyl)-3-(2,5-dihydrofuran-3-yl) indolizine-1-carboxamide], the IC50 in assay [1] and in assay [2] was 101 to 500 nM in each case.
As to `CC1CC(CNC(=O)c2cc(CCO)n3cccc(Cl)c23)CCC1(F)F` (stereo not shown) [Compound 32, 8-chloro-N-((4,4-difluoro-3-methylcyclohexyl)methyl)-3-(2-hydroxyethyl) indolizine-1-carboxamide], the IC50 was under 10 nM in assay [1] and 10 to 100 nM in assay [2].
As to “(S)-8-chloro-N-((4,4-difluoro-1-hydroxycyclohexyl)methyl)-3-((tetrahydrofuran-3-yl)methyl)indolizine-1-carboxamide [Compound 52]”, the IC50 in assay [1] and in assay [2] was 10 to 100 nM in each case.
Consider `COCCc1cc(C(=O)NCC2(O)CCCCCC2)c2c(Cl)cccn12` [Compound 35, 8-chloro-N-((1-hydroxycycloheptyl)methyl)-3-(2-methoxyethyl)indolizine-1-carboxamide], for which the IC50 in assay [1] and in assay [2] was 10 to 100 nM throughout.
For the compound `O=C(NCC1(O)CCC(F)(F)CC1)c1cc(CC2CCOC2)n2cccc(Cl)c12` (stereo not shown) [Compound 47, 8-chloro-N-((4,4-difluoro-1-hydroxycyclohexyl)methyl)-3-((tetrahydrofuran-3-yl)methyl)indolizine-1-carboxamide], the IC50 in assay [1] and in assay [2] was 10 to 100 nM in each case.
Consider `[2H]C([2H])([2H])OCCc1cc(C(=O)NCC2CCC(F)(F)CC2)c2c(Cl)cccn12` [Compound 72], for which the IC50 in assay [1] and in assay [2] was 10 to 100 nM each time.
In the case of `COCCc1cc(C(=O)NCC2(O)CCCC(F)(F)C2)c2c(Cl)cccn12` (stereo not shown) [Compound 62, 8-Chloro-3-(2-methoxy-ethyl)-indolizine-1-carboxylic Acid (3,3-difluoro-1-hydroxycyclohexylmethyl)-amide], the IC50 in assay [1] was under 10 nM; in assay [2], 10 to 100 nM.
In the case of `COCCc1cc(C(=O)NCC2(O)CCCC3(CC3)C2)c2c(Cl)cccn12` (stereo not shown) [Compound 29, 8-chloro-N-((5-hydroxyspiro[2.5]octan-5-yl)methyl)-3-(2-methoxyethyl) indolizine-1-carboxamide], the IC50 in assay [1] and in assay [2] was 101 to 500 nM in each case.
For `CCOCCc1cc(C(=O)NC[C@@]2(O)CCC[C@@H](C)C2)c2c(Cl)cccn12` [Compound 73], the IC50 in assay [1] and in assay [2] was 10 to 100 nM throughout.
Regarding `O=C(NCC1CCCC(F)(F)C1)c1cc(CCO)n2cccc(Cl)c12` (stereo not shown) [Compound 45, 8-chloro-N-((3,3-difluorocyclohexyl)methyl)-3-(2-hydroxyethyl)indolizine-1-carboxamide], the IC50 is 10 to 100 nM in assay [1] and 101 to 500 nM in assay [2].
As to `COCCc1cc(C(=O)NCC2(O)CCC(F)(F)C(C)C2)c2c(Cl)cccn12` (stereo not shown) [Compound 43, 8-chloro-N-((4,4-difluoro-1-hydroxy-3-methylcyclohexyl)methyl)-3-(2-methoxyethyl)indolizine-1-carboxamide], the IC50 in assay [1] was in the range of 10 to 100 nM; in assay [2], 101 to 500 nM.
For `COCCc1cc(C(=O)NCC2CCCCC2)c2c(Cl)cccn12` [Compound 8, 8-chloro-N-(cyclohexylmethyl)-3-(2-methoxyethyl)-indolizine-1-carboxamide], in that order: 10 to 100 nM and 101 to 500 nM.
With `COCCc1cc(C(=O)NCC2(O)CCCC(F)(F)C2)c2c(Cl)cccn12` (stereo in doubt) [Compound 63, 8-Chloro-3-(2-methoxy-ethyl)-indolizine-1-carboxylic Acid ((S)-3,3-difluoro-1-hydroxy-cyclohexylmethyl)-amide], the IC50 in assay [1] and in assay [2] was under 10 nM each time.
As to `COCCc1cc(C(=O)NCC2CC(C)CC(F)(F)C2)c2c(Cl)cccn12` (stereo not shown) [Compound 13, 8-chloro-N-((3,3-difluoro-5-methylcyclohexyl)methyl)-3-(2-methoxyethyl)indolizine-1-carboxamide], the IC50 in assay [1] and in assay [2] was 10 to 100 nM each time.
Consider `COCCc1cc(C(=O)NCC2CCCC3(CC3)C2)c2c(Cl)cccn12` (stereo not shown) [Compound 2, 8-chloro-3-(2-methoxyethyl)-N-(spiro[2.5]octan-5-ylmethyl)indolizine-1-carboxamide], for which the results for the IC50 in assay [1] and in assay [2] were under 10 nM and 10 to 100 nM, respectively.
`O=C(NC[C@]1(O)CCCC(F)(F)C1)c1cc(C2CCOC2)n2cccc(Cl)c12` (stereo partly drawn) [Compound 67, 8-chloro-N—(((S)-3,3-difluoro-1-hydroxycyclohexyl)methyl)-3-(tetrahydrofuran-3-yl)indolizine-1-carboxamide]: the IC50 in assay [1] and in assay [2] was 10 to 100 nM in each case.
On to `COCCc1cc(C(=O)NCC2CCC(F)(F)C(C)C2)c2c(Cl)cccn12` (stereo not shown) [Compound 11, 8-chloro-N-((4,4-difluoro-3-methylcyclohexyl)methyl)-3-(2-methoxyethyl) indolizine-1-carboxamide], for which the IC50 in assay [1] is under 10 nM; in assay [2], 10 to 100 nM.
For `O=C(NCC1CCCC(F)(F)C1)c1cc(C2CCCO2)n2cccc(Cl)c12` (stereo not shown) [Compound 17, 8-Chloro-3-(tetrahydro-furan-2-yl)-indolizine-1-carboxylic Acid (3,3-difluoro-cyclohexylmethyl)-amide], in that order: under 10 nM and 10 to 100 nM.
In the case of `O=C(NCC1CCC(F)(F)CC1)c1cc(CCO)n2cccc(Cl)c12` [Compound 51, 8-chloro-N-((4,4-difluorocyclohexyl)methyl)-3-(2-hydroxyethyl)indolizine-1-carboxamide], the IC50 in assay [1] is 10 to 100 nM; in assay [2] it was 101 to 500 nM.
With `O=C(NCC1CCC(F)(F)CC1)c1cc(C2=COCC2)n2cccc(Cl)c12` [Compound 14, 8-chloro-N-((4,4-difluorocyclohexyl)methyl)-3-(4,5-dihydrofuran-3-yl)indolizine-1-carboxamide], the IC50 in assay [1] and in assay [2] was 10 to 100 nM throughout.
As to `C[C@@H]1CCC[C@](O)(CNC(=O)c2cc(C3CCC3)n3cccc(Cl)c23)C1` [Compound 71, 8-chloro-3-cyclobutyl-N-(((1R,3R)-1-hydroxy-3-methylcyclohexyl)methyl) indolizine-1-carboxamide], the IC50 in assay [1] and in assay [2] was 10 to 100 nM each time.
